Measurements published in PMC4332533 (Neuropharmacology, 2014).
Values joined by “and” are separate entries in the source; they are usually repeats but may differ in a detail not shown here. Identical values can stand only once. Like-named read-outs stand apart in the source and are kept apart here.

Assays:
[1] = target: T1, α3Y168Cβ2D190C receptor (Rattus norvegicus, UniProt P04757+P12390, D216C/Y195C); test: Disulfide cross-linking experiments; format: cell-based
[2] = target: T2, α3S125Cβ2Q39C receptor (Rattus norvegicus, UniProt P04757+P12390, Q65C/S152C); test: Disulfide cross-linking experiments; format: cell-based
[3] = target: T3, α3Q37Cβ2A127C receptor (Rattus norvegicus, UniProt P04757+P12390, A153C/Q64C); test: Disulfide cross-linking experiments; format: cell-based
[4] = target: α3E173Cβ2R46C receptor (Rattus norvegicus, UniProt P04757+P12390, E200C/R46C); test: Disulfide cross-linking experiments; format: cell-based
[5] = target: T4, wild type α3β2 receptor (Rattus norvegicus, UniProt P04757+P12390); test: Disulfide cross-linking experiments; format: cell-based; conditions: 5 min 4.4 mM H2O2 alone; 300 µM ACh ± 10 µM Mor
[6] = target: T5, α3S125Cβ2 receptor (Rattus norvegicus, UniProt P04757+P12390, S152C); test: Disulfide cross-linking experiments; format: cell-based; conditions: H2O2 oxidation treatment (Supplemental Fig. S3C)
[7] = target: T4, wild type α3β2 receptor; test: Macroscopic evoked currents, two-electrode voltage-clamp, Xenopus laevis oocytes; format: cell-based; conditions: 10 µM Mor; 300 µM ACh; control measurement before oxidation (Fig. 2)
[8] = target: T1, α3Y168Cβ2D190C receptor; test: as above; format: cell-based
[9] = target: α3β2D190C receptor (Rattus norvegicus, UniProt P04757+P12390, D216C); test: as above; format: cell-based; conditions: for potentiation of ACh-evoked currents: 10 µM modulator (Fig. 3B)
α3β2D190C receptor, sequence (P04757 26-499): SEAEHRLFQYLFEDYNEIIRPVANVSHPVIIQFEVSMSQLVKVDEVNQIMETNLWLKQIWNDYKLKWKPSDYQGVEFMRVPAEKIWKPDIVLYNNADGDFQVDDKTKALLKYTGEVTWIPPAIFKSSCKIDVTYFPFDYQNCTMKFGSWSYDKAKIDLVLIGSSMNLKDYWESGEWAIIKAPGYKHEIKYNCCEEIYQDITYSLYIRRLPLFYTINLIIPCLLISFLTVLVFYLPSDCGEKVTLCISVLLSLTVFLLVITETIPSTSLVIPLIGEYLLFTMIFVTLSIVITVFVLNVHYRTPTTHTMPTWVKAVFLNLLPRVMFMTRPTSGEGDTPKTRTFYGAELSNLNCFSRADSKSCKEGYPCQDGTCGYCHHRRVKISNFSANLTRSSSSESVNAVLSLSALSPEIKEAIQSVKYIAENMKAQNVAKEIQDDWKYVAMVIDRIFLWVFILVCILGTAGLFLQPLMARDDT
α3β2D190C receptor, sequence (P12390 25-500 D216C): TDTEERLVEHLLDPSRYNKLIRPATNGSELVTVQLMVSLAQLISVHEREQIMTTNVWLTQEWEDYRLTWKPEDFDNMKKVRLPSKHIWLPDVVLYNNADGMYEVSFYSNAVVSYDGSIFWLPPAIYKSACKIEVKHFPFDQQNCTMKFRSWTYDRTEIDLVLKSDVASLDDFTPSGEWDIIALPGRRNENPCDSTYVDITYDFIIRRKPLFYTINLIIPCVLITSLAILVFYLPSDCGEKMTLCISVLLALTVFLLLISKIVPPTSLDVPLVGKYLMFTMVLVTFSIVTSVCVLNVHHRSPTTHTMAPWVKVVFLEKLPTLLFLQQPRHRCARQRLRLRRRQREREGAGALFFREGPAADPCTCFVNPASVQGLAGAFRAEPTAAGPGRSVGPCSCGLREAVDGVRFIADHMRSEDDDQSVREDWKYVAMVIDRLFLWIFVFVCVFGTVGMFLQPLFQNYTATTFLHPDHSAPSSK

[10] = target: α3Y168Fβ2 receptor (Rattus norvegicus, UniProt P04757+P12390, Y195F); test: as above; format: cell-based
[11] = target: α3β2D190Q receptor (Rattus norvegicus, UniProt P04757+P12390, D216Q); test: as above; format: cell-based; conditions: mutation-modulator Ɽ from EC50s vs wild type
[12] = target: α3Y168Fβ2D190Q receptor (Rattus norvegicus, UniProt P04757+P12390, D216Q/Y195F); test: as above; format: cell-based; conditions: mutation-modulator Ɽ from EC50s vs wild type
[13] = target: α3S125Yβ2W149A receptor (Rattus norvegicus, UniProt P04757+P12390, S152Y/W175A); test: as above; format: cell-based
α3S125Yβ2W149A receptor, sequence (P04757 26-499 S152Y): as the sequence (P04757 26-499) above, with S127Y counted along it
α3S125Yβ2W149A receptor, sequence (P12390 25-500 W175A): as the sequence (P12390 25-500 D216C) above, with W151A, C192D counted along it

[14] = target: T5, α3S125Cβ2 receptor; test: as above; format: cell-based
[15] = target: α3β2Q39C receptor (Rattus norvegicus, UniProt P04757+P12390, Q65C); test: as above; format: cell-based; conditions: mutation-modulator Ɽ from EC50s vs wild type; 10 µM Mor
[16] = target: α3Q37Cβ2 receptor (Rattus norvegicus, UniProt P04757+P12390, Q64C); test: as above; format: cell-based; conditions: mutation-modulator Ɽ from EC50s vs wild type; 10 µM Mor
[17] = target: α3β2A127C receptor (Rattus norvegicus, UniProt P04757+P12390, A153C); test: as above; format: cell-based; conditions: mutation-modulator Ɽ from EC50s vs wild type; 10 µM Mor
[18] = target: T3, α3Q37Cβ2A127C receptor; test: as above; format: cell-based; conditions: mutation-modulator Ɽ from EC50s vs wild type; 10 µM Mor
[19] = target: α3β2A127Y receptor (Rattus norvegicus, UniProt P04757+P12390, A153Y); test: as above; format: cell-based
α3β2A127Y receptor, sequence (P04757 26-499): as the sequence (P04757 26-499) above
α3β2A127Y receptor, sequence (P12390 25-500 A153Y): as the sequence (P12390 25-500 D216C) above, with A129Y, C192D counted along it

[20] = target: α3S125Yβ2A127Y receptor (Rattus norvegicus, UniProt P04757+P12390, A153Y/S152Y); test: as above; format: cell-based
α3S125Yβ2A127Y receptor, sequence (P04757 26-499 S152Y): as the sequence (P04757 26-499) above, with S127Y counted along it
α3S125Yβ2A127Y receptor, sequence (P12390 25-500 A153Y): as the sequence (P12390 25-500 D216C) above, with A129Y, C192D counted along it

[21] = target: α3E173Aβ2 receptor (Rattus norvegicus, UniProt P04757+P12390, E200A); test: as above; format: cell-based
[22] = target: α3β2R46V receptor (Rattus norvegicus, UniProt P04757+P12390, R72V); test: as above; format: cell-based; conditions: Mor alone; relative to saturating ACh; no Hill fit possible
[23] = target: α3E173Aβ2R46V receptor (Rattus norvegicus, UniProt P04757+P12390, E200A/R46V); test: as above; format: cell-based; conditions: mutation-modulator Ɽ from EC50s vs wild type; 10 µM Mor
[24] = target: T4, wild type α3β2 receptor; conditions: Mor alone, cited from earlier work
[25] = tested on: α3β2W149A receptor; conditions: Mor alone; relative to saturating ACh; no Hill fit possible; cited from earlier work
[26] = target: α3S125Yβ2 receptor (Rattus norvegicus, UniProt P04757+P12390, S152Y); test: Macroscopic evoked currents, two-electrode voltage-clamp, Xenopus laevis oocytes
α3S125Yβ2 receptor, sequence (P04757 26-499 S152Y): as the sequence (P04757 26-499) above, with S127Y counted along it
α3S125Yβ2 receptor, sequence (P12390 25-500, stated change not applied): as the sequence (P12390 25-500 D216C) above, with C192D counted along it

[27] = target: T2, α3S125Cβ2Q39C receptor; test: as above
[28] = target: α3Y168Cβ2 receptor (Rattus norvegicus, UniProt P04757+P12390, Y195C); test: as above; format: cell-based; conditions: mutation-modulator Ɽ from EC50s vs wild type; 10 µM Oxa
[29] = mutation-modulator Ɽ from EC50s vs wild type, 10 µM Mor
[30] = Mor alone, relative to saturating ACh
[31] = 10 µM Mor, saturating nicotine, 10 µM epibatidine (Fig. 8)
[32] = mutation-modulator Ɽ from EC50s vs wild type, 10 µM Oxa

O[C@@H](CS)[C@@H](O)CS (racemic) [DTT, dithiothreitol]
reversal of oxidation-induced current decrease by reduction ([1]; subsequent DTT treatment (Supplemental Fig. S2B)): completely reversed
reduction of the disulfide bond after oxidation ([2]; 40–100 µM DTT after H2O2 (Fig. 6)): effective resistance
reduction of the disulfide bond after oxidation ([3]; 40 µM DTT after oxidation (Fig. 7)): essentially resistant
change of currents upon reduction following oxidation ([4]; DTT after H2O2 (Supplemental Fig. S4)): did decrease currents, but not completely to the control level

OO [H2O2]
effect of oxidizing treatment on evoked currents [5]: unaffected
reduction of evoked currents following oxidation ([1]; H2O2 treatment (abstract)): up to 50%
Ioxidation/Icontrol, final fraction of current remaining at long times ([1]; oxidation onset kinetics (Supplemental Fig. S2A)): 0.61 ± 0.05
decrease of currents evoked by ACh, ACh + Mor and Mor alone upon oxidation ([2]; 4.4 mM H2O2 alone, 300 µM ACh, 300 µM ACh + 10 µM Mor, 10 µM Mor (Fig. 6)): 62–89%
decrease of IACh upon oxidation ([2]; 5 min 4.4 mM H2O2 alone, current evoked by 300 µM ACh): 60%
decrease of IACh+Mor upon oxidation ([2]; 5 min 4.4 mM H2O2 alone, current evoked by 300 µM ACh + 10 µM Mor): 80% and 90%
change in evoked currents upon oxidation [6]: no changes
change of currents evoked by ACh alone, ACh + Mor and Mor alone upon oxidation ([3]; 4.4 mM H2O2 alone or with 100 µM ACh + 10 µM Mor, 1 mM ACh, 10 µM Mor (Fig. 7)): all increased
change of currents upon oxidation ([4]; H2O2 alone (Supplemental Fig. S4)): significantly increased currents

Cc1ccsc1C=CC1=NCCCN1C.O=C(O)C(O)C(O)C(=O)O [Mor, 1,4,5,6-tetrahydro-1-methyl-2-(2-[3-methyl-2-thienyl]ethenyl)pyrimidine, tartrate salt]
potentiation (IACh+Mor/IACh) [7]: greater than 2.5 fold
potentiation (IACh+Mor/IACh) ([8]; 10 µM Mor, 1 mM ACh, control measurement before oxidation (Fig. 2)): greater than 2.5 fold
R(mut-Mor) ([8]; Ɽ=EC50(WT,A)·EC50(mut,A+M)/EC50(WT,A+M)·EC50(mut,A), M = 10 µM Mor): 0.52
potentiation of ACh-evoked currents [9]: eliminated
R(mut-Mor) [9, 29]: 10
decrease in EC50 for Mor modulation vs wild type ([10]; ACh + 10 µM Mor EC50 comparison, Table 1): 70 fold
R(mut-Mor) ([11]; 10 µM Mor): 7.1
R(mut-Mor) ([12]; 10 µM Mor): 0.57
EC50 [13]: 25 ± 9 µM
nH (Mor Activation) ([13]; Mor alone, Hill fit): 1.01 ± 0.29 [5–6]
Emax (Mor Activation) [13, 30]: 0.21 ± 0.02
R(mut-Mor) [13, 29]: 7.2
EC50 [14]: 92 ± 33 µM
nH (Mor Activation) ([14]; Mor alone, Hill fit): 0.54 ± 0.11 [4]
Emax (Mor Activation) [14, 30]: 0.028 ± 0.006
R(mut-Mor) [14, 29]: 1.3
R(mut-Mor) [15]: 0.10
R(mut-Mor) [16]: 5.3
R(mut-Mor) [17]: 3.3
R(mut-Mor) [18]: 1.7
EC50 [19]: 4.8 ± 2.4 µM
response to Mor alone ([19]; 10 µM Mor alone (Fig. 8)): nearly negligible current
effect on ACh responses ([19]; 10 µM Mor, 300 µM ACh (Fig. 8)): modestly potentiated
effect on responses evoked by nicotine and epibatidine [19, 31]: inhibited
nH (Mor Activation) ([19]; Mor alone, Hill fit): 1.08 ± 0.40
Emax (Mor Activation) [19, 30]: 0.05 ± 0.01 [5]
R(mut-Mor) [19, 29]: 9.4
EC50 [20]: 1.9 ± 0.2 µM
effect on ACh responses ([20]; 10 µM Mor, 300 µM ACh (Fig. 8)): modestly potentiated
effect on responses evoked by nicotine and epibatidine [20, 31]: inhibited
nH (Mor Activation) ([20]; Mor alone, Hill fit): 3.18 ± 0.63
Emax (Mor Activation) [20, 30]: 0.16 ± 0.01 [3]
R(mut-Mor) [20, 29]: 1.2
Ω (Mor alone activation) ([20]; thermodynamic cycle α3S125Y-β2A127Y from Mor alone EC50s): 3.4
Emax (Mor Activation) ([21]; Mor alone, relative to saturating ACh, no Hill fit possible): 0.16 ± 0.01 [4]
R(mut-Mor) [21, 29]: 1.4
Emax (Mor Activation) [22]: 0.03 ± 0.01 [7]
R(mut-Mor) [23]: 9.0
nH (Mor Activation) ([24]; Hill fit): 3.1 ± 1.6
Emax (Mor Activation) ([24]; relative to saturating ACh): 0.2 and 0.20 ± 0.04
EC50 ([24]; read-out: EC50 (Mor Activation), Hill fit): 20 ± 2 µM
Emax (Mor Activation) [25]: 0.015 ± 0.004 [3]
EC50 [26]: 2.3 ± 0.7 µM
response to Mor alone ([26]; 10 µM Mor alone (Fig. 8, Fig. 5A)): full agonist
effect on ACh responses ([26]; 10 µM Mor, 300 µM ACh (Fig. 8)): modestly potentiated
effect on responses evoked by nicotine and epibatidine [26, 31]: inhibited
decrease in EC50 for Mor modulation vs wild type ([26]; ACh + 10 µM Mor EC50 comparison): 1000 fold
Emax (Mor Activation) [26, 30]: 1.7 and 1.69 ± 0.27
R(mut-Mor) [26, 29]: 0.0076
EC50 [27]: 0.53 ± 0.21 µM
potentiation (IACh+Mor/IACh) ([27]; 10 µM Mor, 300 µM ACh, control measurement before oxidation (Fig. 2)): greater than 2.5 fold
nH (Mor Activation) ([27]; Mor alone, Hill fit): 0.92 ± 0.30 [4–8]
Emax (Mor Activation) [27, 30]: 1.00 ± 0.14
R(mut-Mor) [27, 29]: 4.5

CN1CCCN=C1/C=C/c1cccc(O)c1 [Oxa, 1-methyl-2-(3-hydroxyphenylethenyl)-1,4,5,6-tetrahydropyrimidine with 4,4’-methylenebis(3-hydroxy-2-naphthoic acid)]
R(mut-Oxa) [8, 32]: 1.9
R(mut-Oxa) [28]: 1.2
potentiation of ACh-evoked currents [9]: eliminated
R(mut-Oxa) [9, 32]: 19
R(mut-Oxa) [10, 32]: 1.5
R(mut-Oxa) ([11]; 10 µM Oxa): 19
R(mut-Oxa) ([12]; 10 µM Oxa): 1.6

Clc1ccc(C2CC3CCC2N3)cn1 (stereo not shown) [epibatidine]
efficacy compared with ACh ([26]; saturating agonist (Fig. 8)): greater efficacy

CN1CCC[C@H]1c1cccnc1 [nicotine]
efficacy compared with ACh [26]: greater efficacy
